PMC10435442, “Developing multitarget coumarin based anti-breast cancer agents: synthesis and molecular modeling study” (Scientific Reports, 2023)
In brackets after ≈: the same amount, converted by molar mass. Several values for one entry are separate records, joined by “and”; a condition that tells them apart may be missing. Identical values can stand only once. Like-named read-outs stand apart in the source and are kept apart here.

What was measured:
[1] = test system: MDA-MB-231; experiment: MTT cytotoxicity assay, MDA-MB-231; details: for IC50: Homo sapiens; for % viability: MDA; for anti-proliferative activity against MDA-MB-231 (in words): SAR discussion
[2] = test system: MCF-7; experiment: MTT cytotoxicity assay, MCF-7; details: for IC50: Homo sapiens; for anti-proliferative activity against MCF-7 (in words): SAR discussion
[3] = test system: MCF-10A; experiment: MTT cytotoxicity assay, nonmalignant MCF-10A; details: for IC50: read-out: MCF-10A IC50, MTT, nonmalignant MCF-10A;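 on all read-outs here: MTT assay with absorbance read at 570 nm after 48 h exposure of cells to serial compound concentrations at 37 °C, testing selectivity against nonmalignant versus cancer cells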
[4] = in vitro; details: human
[5] = target: EGFR (Homo sapiens, UniProt P00533); experiment: In vitro EGFR enzyme inhibition assay (ELISA); details: for EGFR %inh: lab report 01-11-2021
EGFR, sequence (P00533 25-1210): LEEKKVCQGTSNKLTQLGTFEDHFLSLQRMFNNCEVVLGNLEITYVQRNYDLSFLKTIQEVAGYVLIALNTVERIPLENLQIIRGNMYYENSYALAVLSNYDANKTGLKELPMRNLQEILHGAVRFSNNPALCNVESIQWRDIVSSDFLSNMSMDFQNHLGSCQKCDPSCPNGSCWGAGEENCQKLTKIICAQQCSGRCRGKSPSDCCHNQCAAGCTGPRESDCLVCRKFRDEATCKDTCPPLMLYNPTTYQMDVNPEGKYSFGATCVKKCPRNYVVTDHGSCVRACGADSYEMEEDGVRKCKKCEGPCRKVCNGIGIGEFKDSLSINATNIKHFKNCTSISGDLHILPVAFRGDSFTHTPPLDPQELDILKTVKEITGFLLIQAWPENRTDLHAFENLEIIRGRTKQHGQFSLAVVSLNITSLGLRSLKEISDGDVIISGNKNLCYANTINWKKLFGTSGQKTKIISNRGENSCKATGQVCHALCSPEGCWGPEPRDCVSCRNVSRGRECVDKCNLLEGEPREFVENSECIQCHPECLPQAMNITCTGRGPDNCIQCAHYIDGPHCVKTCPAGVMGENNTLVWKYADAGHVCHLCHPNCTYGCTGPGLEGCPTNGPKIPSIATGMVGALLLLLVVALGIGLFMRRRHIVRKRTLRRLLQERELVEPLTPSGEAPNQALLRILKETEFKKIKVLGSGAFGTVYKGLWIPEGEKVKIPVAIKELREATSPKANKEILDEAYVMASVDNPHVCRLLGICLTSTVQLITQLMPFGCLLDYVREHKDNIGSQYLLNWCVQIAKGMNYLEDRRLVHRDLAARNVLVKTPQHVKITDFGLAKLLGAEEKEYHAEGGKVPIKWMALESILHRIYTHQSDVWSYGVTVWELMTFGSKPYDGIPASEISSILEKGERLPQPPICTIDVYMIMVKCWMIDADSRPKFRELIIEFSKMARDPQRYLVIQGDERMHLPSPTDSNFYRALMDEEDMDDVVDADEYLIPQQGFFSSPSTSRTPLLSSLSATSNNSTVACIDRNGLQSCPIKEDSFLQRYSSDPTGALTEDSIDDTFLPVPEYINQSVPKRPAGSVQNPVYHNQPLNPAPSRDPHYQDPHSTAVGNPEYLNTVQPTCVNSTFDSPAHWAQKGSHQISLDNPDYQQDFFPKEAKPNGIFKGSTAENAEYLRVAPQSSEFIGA

[6] = MDA-MB-231, read-out: MDA-MBA-231 IC50
[7] = MDA-MB-231, read-out: cytotoxicity_IC50 MDA
[8] = MCF7, read-out: cytotoxicity_IC50 mcf7
[9] = EGFR IC50, lab report 01-11-2021, 10 compounds
[10] = MCF-10A cells (nonmalignant breast)

SMILES	IC50 [1, 6]	IC50 [1, 7]	% viability ([1]; 0.4ug (log conc. -0.41))	% viability ([1]; 1.6ug (log conc. 0.19))	% viability ([1]; 6.25ug (log conc. 0.8))	% viability ([1]; 25ug (log conc. 1.4))	% viability ([1]; 100ug (log conc. 2))	IC50 ([2]; MCF7, read-out: MCF-7 IC50)	IC50 [2, 8]	% viability ([2]; MCF7, 0.4ug)	% viability ([2]; MCF7, 1.6ug)	% viability ([2]; MCF7, 6.3ug)	% viability ([2]; MCF7, 25ug)	% viability ([2]; MCF7, 100ug)	IC50 [3]	IC50 at 48 h [4, 10]	viability at 48 h, 0.4 ug [4, 10]	viability at 48 h, 1.6 ug [4, 10]	viability at 48 h, 6.25 ug [4, 10]	viability at 48 h, 25 ug [4, 10]	other results
O=c1cc(CCl)c2ccc(O)cc2o1 [Compound 1, 4-chloromethyl-7-hydroxycoumarin]	354 ± 4.06 µM	74.5 ± 4.06 µg/mL	88.396% and 88.4%	77.133% and 77.13%	69.01%	56.655% and 56.66%	48.4642% and 48.46%	115 ± 1.47 µM	24.3 ± 1.47 µg/mL	77.743% and 77.74%	67.269% and 67.27%	59.663% and 59.66%	49.002% and 49%	41.1471% and 41.15%	442 ± 4.53 µM	–	–	–	–	–	anti-proliferative activity against MDA-MB-231 (in words) [1]: devoid of activity; anti-proliferative activity against MCF-7 (in words) [2]: devoid of activity; % viability ([3]; MCF10a, 0.4ug (log conc. -0.41)): 84.01%; % viability ([3]; MCF10a, 1.6ug (log conc. 0.19)): 75.58%; % viability ([3]; MCF10a, 6.25ug (log conc. 0.8)): 67.49%; % viability ([3]; MCF10a, 25ug (log conc. 1.4)): 56.99%; % viability ([3]; MCF10a, 100ug (log conc. 2)): 50.09%; IC50 at 48 h [4]: 93 ± 4.53 µg/mL (≈ 442 µM); viability at 48 h, 0.4 ug [4]: 84%; viability at 48 h, 1.6 ug [4]: 75.6%; viability at 48 h, 6.25 ug [4]: 67.5%; viability at 48 h, 25 ug [4]: 57%; viability at 48 h, 100 ug [4]: 50.1%
O=C(OCc1cc(=O)oc2cc(O)ccc12)c1ccc(Cl)cc1 [Compound 3, (7-Hydroxy-2-oxo-2H-chromen-4-yl)methyl 4-chlorobenzoate]	67.5 ± 1.22 µM	22.3 ± 1.22 µg/mL	76.24%	65.98%	58.685%	49.2762%	40.41%	36.6 ± 0.74 µM	12.1 ± 0.74 µg/mL	72.04%	65.12%	53.704%	45.5556%	35.679%	369 ± 5.93 µM	122 ± 5.93 µg/mL (≈ 369 µM)	95.8%	83.9%	72.9%	61.2%	IC50 [5, 9]: 0.974 µM; IC50 ([5]; EGFR inhibition IC50): 0.974 ± 0.06 µM; EGFR %inh ([5]; conc 0.01 (unit not given)): 17%; EGFR %inh ([5]; conc 0.1 (unit not given)): 36%; EGFR %inh ([5]; conc 1 (unit not given)): 60%; EGFR %inh ([5]; conc 10 (unit not given)): 85%; Percentage above Reference IC50 (potency relative to erlotinib) ([5]; reference Erlotinib): 8.624%; viability at 48 h, 100 ug [4, 10]: 52.7%
COc1ccccc1C(=O)OCc1cc(=O)oc2cc(O)ccc12 [Compound 4, (7-Hydroxy-2-oxo-2H-chromen-4-yl)methyl 2-methoxybenzoate]	6.4 ± 0.11 µM	2.08 ± 0.11 µg/mL	60.769%	51.538%	43.254%	34.142%	25.2071%	17.2 ± 0.34 µM	5.6 ± 0.34 µg/mL	68.369%	58.612%	49.509%	38.9%	30.9103%	128 ± 2.03 µM	41.6 ± 2.03 µg/mL (≈ 127 µM)	76.8%	69.5%	61.1%	53.6%	IC50 [5, 9]: 0.438 µM; IC50 ([5]; EGFR inhibition IC50): 0.438 ± 0.027 µM; EGFR %inh ([5]; conc 0.01 (unit not given)): 25%; EGFR %inh ([5]; conc 0.1 (unit not given)): 46%; EGFR %inh ([5]; conc 1 (unit not given)): 70%; EGFR %inh ([5]; conc 10 (unit not given)): 87%; Percentage above Reference IC50 (potency relative to erlotinib) ([5]; reference Erlotinib): 19.178%; viability at 48 h, 100 ug [4, 10]: 44.3%
O=C(COc1ccc2c(CCl)cc(=O)oc2c1)c1ccccc1 [Compound 5, 4-(Chloromethyl)-7-(2-oxo-2-phenylethoxy)-2H-chromen-2-one]	5.8 ± 0.1 µM	1.91 ± 0.1 µg/mL	61.18%	50.473%	42.019%	33.628%	22.3344%	39.5 ± 0.79 µM	13 ± 0.79 µg/mL	67.523%	64.281%	52.844%	47.217%	38.104%	83.9 ± 1.35 µM	27.6 ± 1.35 µg/mL (≈ 84 µM)	74.4%	66.7%	57.6%	49.9%	IC50 ([5]; EGFR IC50, lab report 01-09-2021, 04 compounds, reference Erlotinib): 0.316 µM; IC50 ([5]; EGFR inhibition IC50): 0.316 ± 0.0066 µM; inhibition at 10 pg/mL ([5]; read-out: EGFR %inh): 29%; inhibition at 0.0001 µg/mL ([5]; read-out: EGFR %inh): 50%; inhibition at 0.001 µg/mL ([5]; read-out: EGFR %inh): 70%; inhibition at 0.01 µg/mL ([5]; read-out: EGFR %inh): 90%; Percentage above Reference IC50 (potency relative to erlotinib) ([5]; reference Erlotinib): 54.886%; viability at 48 h, 100 ug [4, 10]: 43.5%
O=C(COc1ccc2c(CCl)cc(=O)oc2c1)c1ccc(Cl)cc1 [Compound 6, 4-(Chloromethyl)-7-(2-(4-chlorophenyl)-2-oxoethoxy)-2H-chromen-2-one]	56.6 ± 1.12 µM	20.5 ± 1.12 µg/mL	73.67%	63.08%	56.509%	49.4083%	41.124%	217 ± 4.77 µM	78.7 ± 4.77 µg/mL	87.56%	78.06%	71.906%	59.463%	45.972%	156 ± 2.76 µM	56.6 ± 2.76 µg/mL (≈ 156 µM)	78.1%	70.4%	62.2%	54.8%	anti-proliferative activity against MDA-MB-231 (in words) [1]: lower activity level; IC50 [5, 9]: 0.154 µM; IC50 ([5]; EGFR inhibition IC50): 0.154 ± 0.008 µM; EGFR %inh ([5]; conc 0.01 (unit not given)): 34%; EGFR %inh ([5]; conc 0.1 (unit not given)): 57%; EGFR %inh ([5]; conc 1 (unit not given)): 74%; EGFR %inh ([5]; conc 10 (unit not given)): 91%; Percentage above Reference IC50 (potency relative to erlotinib) ([5]; reference Erlotinib): 54.545%; anti-proliferative activity against MCF-7 (in words) [2]: lower activity level; viability at 48 h, 100 ug [4, 10]: 46.8%
COc1ccccc1C(=O)OCc1cc(=O)oc2cc(OC(C)=O)ccc12 [Compound 15, (7-Acetoxy-2-oxo-2H-chromen-4-yl)methyl 2-methoxybenzoate]	74.9 ± 1.52 µM	27.9 ± 1.52 µg/mL	76.72%	65.9%	56.927%	46.8873%	37.745%	17.1 ± 0.38 µM	6.3 ± 0.38 µg/mL	67.97%	58.26%	50.063%	42.623%	31.337%	312 ± 5.62 µM	115 ± 5.62 µg/mL (≈ 312 µM)	86%	78.2%	68.2%	60.1%	anti-proliferative activity against MCF-7 (in words) [2]: moderate anti-proliferative activity; viability at 48 h, 100 ug [4, 10]: 50.8%
COc1cccc2c1C(=O)c1c(O)c3c(c(O)c1C2=O)C[C@@](O)(C(=O)CO)C[C@@H]3O[C@H]1C[C@H](N)[C@H](O)[C@H](C)O1 [Doxorubicin, reference compound]	7.3 ± 0.22 µM	3.98 ± 0.22 µg/mL	–	–	–	40.9788%	–	5.6 ± 0.18 µM	3.04 ± 0.18 µg/mL	62.95%	52.16%	46.435%	38.2693%	28.946%	22.8 ± 0.6 µM	12.4 ± 0.6 µg/mL (≈ 22.8 µM)	74%	63.5%	55.4%	44.6%	% viability ([1]; 0.4ug (log conc. -0.41), listed as Dox): 63.56% and 63.5613%; % viability ([1]; 1.6ug (log conc. 0.19), listed as Dox): 55.84% and 55.8373%; % viability ([1]; 6.25ug (log conc. 0.8), listed as Dox): 46.58% and 46.5802%; % viability ([1]; 100ug (log conc. 2), listed as Dox): 29.599% and 29.5991%; % viability ([2]; MCF7, 0.4ug (log conc. -0.4089)): 62.9494%; % viability ([2]; MCF7, 1.6ug (log conc. 0.1931)): 52.1633%; % viability ([2]; MCF7, 6.25ug (log conc. 0.7959)): 46.4351%; % viability ([2]; MCF7, 100ug (log conc. 2)): 28.9458%; % viability ([3]; MCF10a cells, 0.4ug, listed as Dox): 73.9934%; % viability ([3]; MCF10a cells, 1.6ug, listed as Dox): 63.4983%; % viability ([3]; MCF10a cells, 6.25ug (6.3ug), listed as Dox): 55.4455%; % viability ([3]; MCF10a cells, 100ug, listed as Dox): 35.9076%; IC50 ([3]; listed as DOX): 12.4 µM; viability at 48 h, 100 ug [4, 10]: 35.9%
